Source: US11091511B2, “Panaxdiol-type ginsenoside derivative, preparation method therefor and use thereof” (ARMY MEDICAL UNIVERSITY, priority 2016, dated 2021)
Marks after values point to notes of the source that are not given here.

What was measured:
apoE−/− mice [1] = test: Blood lipids (LDL-C, HDL-C) in apoE-/- mice on high-fat diet; format: in vivo, mouse; conditions: apoE-/- mice serum, intragastric 15 weeks, compounds 30 mg/(kg·d), simvastatin 10 mg/(kg·d), x ± s; for HDL-C: n = 5, saline control 3.74 ± 0.62; for LDL-C: n = 5, saline control 7.33 ± 1.03
How it was run: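 Male apoE−/− mice (ten weeks old) on high-fat diet (0.15% cholesterol, 21% lard) for 25 weeks; from week 10, compounds given intragastrically at 30 mg/(kg·d) for 15 weeks (n=5). Serum TC, LDL-C and HDL-C measured on an automatic biochemical analyzer; one-way ANOVA, p<0.05.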

RAW264.7 cells = test: RAW264.7 cell survival rate by CCK8 method; format: cell-based, mouse; conditions: compound 10 prnol/L, 0.1% DMSO, CCK8, x ± s, n = 3, normal saline control = 1
How it was run: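 Mouse macrophage RAW264.7 cells exposed to compounds at 10 […] in medium containing 0.1% DMSO final, alongside a 0.1% DMSO saline control. Survival measured by CCK8, given as x±s, with groups compared by one-way ANOVA (p<0.05).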

[2] = system: RAW264.7 cell-derived foam cells; test: Formation of RAW264.7 cell-derived foam cells (ox-LDL, oil red O, absorbance 490 nm); format: cell-based, mouse; conditions: 48 hours, model group = 100%, x ± s, n = 3
How it was run: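 RAW264.7 foam cells, induced with 60 mg/L ox-LDL for 48 h, were treated 48 h with compound at 10 or 30 μmol/L in saline, in triplicate wells. Lipid was stained with oil red O, extracted in isopropanol and read at 490 nm. Values are cell-number-corrected lipid content as % of the model group.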

TNF-α = test: Local TNF-α level in the arteries of apoE-/- mice (Millipore liquid phase chip); format: in vivo, mouse; conditions: high-fat diet, intragastric 15 weeks, compounds 30 mg/(kg·d), simvastatin 10 mg/(kg·d), x ± s, n = 5, saline control 25.58 ± 6.44
How it was run: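 Male apoE−/− mice on a high-fat diet (0.15% cholesterol, 21% lard) for 25 weeks received compound at 30 mg/(kg·d) intragastrically from week 10 for 15 weeks (n=5). Arterial TNF-α was then measured with a magnetic bead cytokine panel. Groups were compared by one-way ANOVA.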

apoE−/− mice [3] = test: Atherosclerotic plaque area to total aortic area in apoE-/- mice on high-fat diet (Sudan IV staining); format: in vivo, mouse; conditions: intragastric 15 weeks, compounds 30 mg/(kg·d), simvastatin 10 mg/(kg·d), x ± s, n = 5, saline control 14.67 ± 3.58
How it was run: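 Male apoE−/− mice, 10 weeks old, ate a high-fat diet (0.15% cholesterol, 21% lard) for 25 weeks and received compounds intragastrically at 30 mg/(kg·d) for 15 weeks from week 10 (n=5). Aortas from root to abdominal bifurcation were formalin-fixed and Sudan IV-stained. Lesion area was expressed as percent of total aortic area.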

Structure (SMILES)	HDL-C (apoE−/− mice [1])	LDL-C (apoE−/− mice [1])	Cell Survival Rate (RAW264.7 cells)	Foam cell formation (%) ([2]; dose 10 μmol/L)	Foam cell formation (%) ([2]; dose 30 μmol/L)	TNF-α level (ng/g) (TNF-α)	Plaque area/total aorta area (%) (apoE−/− mice [3])
CCOC(=O)CCNCCC[C@](C)(OC(C)=O)C1CC[C@]2(C)[C@@H]1C(OC(C)=O)CC1[C@@]3(C)CC[C@H](OC(C)=O)C(C)(C)C3CC[C@]12C (stereo partly drawn) [Compound 25]	5.14 ± 0.87 ^a mmol/L	4.82 ± 1.54 ^a mmol/L	0.98 ± 0.07	62 ± 18 ^a %	44 ± 15 ^a %	11.65 ± 5.45 ^a ng/g	8.33 ± 2.44 ^a %
CCOC(=O)C(NCCCCC[C@](C)(OC(C)=O)C1CC[C@]2(C)[C@@H]1C(OC(C)=O)CC1[C@@]3(C)CC[C@H](OC(C)=O)C(C)(C)C3CC[C@]12C)C(C)OCC (stereo partly drawn) [Compound 26]	4.45 ± 0.62 ^a mmol/L	6.28 ± 0.84 mmol/L	0.94 ± 0.05	83 ± 21%	72 ± 18 ^a %	16.02 ± 3.11 ^a ng/g	9.78 ± 3.17 ^a %
COC(=O)[C@H](Cc1ccccc1)NCCC[C@](C)(OC(C)=O)C1CC[C@]2(C)[C@@H]1C(OC(C)=O)CC1[C@@]3(C)CC[C@H](OC(C)=O)C(C)(C)C3CC[C@]12C (stereo partly drawn) [Compound 27]	4.37 ± 0.56 ^a mmol/L	5.55 ± 1.06 ^a mmol/L	0.87 ± 0.04	76 ± 12 ^a %	65 ± 18 ^a %	17.95 ± 2.15 ^a ng/g	10.65 ± 3.82 ^a %
COC(=O)[C@@H](Cc1ccc(O)cc1)NCCC[C@](C)(OC(C)=O)C1CC[C@]2(C)[C@@H]1C(OC(C)=O)CC1[C@@]3(C)CC[C@H](OC(C)=O)C(C)(C)C3CC[C@]12C (stereo partly drawn) [Compound 28]	5.55 ± 0.63 ^a mmol/L	4.59 ± 1.62 ^a mmol/L	0.89 ± 0.04	63 ± 11 ^a %	45 ± 16 ^a %	11.84 ± 2.91 ^a ng/g	8.18 ± 2.89 ^a %
COC(=O)[C@H](Cc1c[nH]cn1)NCCC[C@](C)(OC(C)=O)C1CC[C@]2(C)[C@@H]1C(OC(C)=O)CC1[C@@]3(C)CC[C@H](OC(C)=O)C(C)(C)C3CC[C@]12C (stereo partly drawn) [Compound 29]	4.10 ± 0.78 ^a mmol/L	6.27 ± 1.59 mmol/L	1.00 ± 0.16	85 ± 10%	72 ± 18 ^a %	14.93 ± 3.67 ^a ng/g	9.67 ± 2.51 ^a %
COC(=O)[C@H](Cc1c[nH]c2ccccc12)NCCC[C@](C)(OC(C)=O)C1CC[C@]2(C)[C@@H]1C(OC(C)=O)CC1[C@@]3(C)CC[C@H](OC(C)=O)C(C)(C)C3CC[C@]12C (stereo partly drawn) [Compound 30]	4.42 ± 0.57 ^a mmol/L	6.37 ± 0.75 mmol/L	0.95 ± 0.09	78 ± 12 ^a %	64 ± 13 ^a %	16.11 ± 4.19 ^a ng/g	9.99 ± 3.68 ^a %
